Twelve compounds from patent publication US7141573B2, “Polypharmacophoric agents” (Molecular Insight Pharmaceuticals, Inc., priority 2000, dated 2006) can be followed below.

Assay [1] concerns the target T1, human dopamine transporter (hDAT) (Homo sapiens, UniProt Q01959).
T1 construct: expressed in transfected cells; host or cells: HEK-293 cells stably expressing recombinant hDAT
Nature of the assay: [125I]RTI-55 binding to human dopamine transporter in HEK-293 hDAT membranes. The settings on record: for Hill Coefficient: [125I]RTI-55 binding. Here is the method:
To characterize drug interactions with the human dopamine transporter (hDAT), drugs (approximately 30 nM to 10 μM) were incubated with a membrane preparation from HEK-293 cells stably expressing the recombinant hDAT, [^125I]RTI-55 (34 pM), and buffer in a final volume of 250 μl. Independent assays were conducted 2 to 3 times with duplicate determinations. The Cheng-Prusoff equation was used to convert IC50 values to Ki values.

For the next assay, the target named is T2, hDAT (Homo sapiens, UniProt Q01959).
T2 construct: expressed in transfected cells; host or cells: HEK-293 cells stably expressing recombinant hDAT
T2 sequence (Q01959 whole entry): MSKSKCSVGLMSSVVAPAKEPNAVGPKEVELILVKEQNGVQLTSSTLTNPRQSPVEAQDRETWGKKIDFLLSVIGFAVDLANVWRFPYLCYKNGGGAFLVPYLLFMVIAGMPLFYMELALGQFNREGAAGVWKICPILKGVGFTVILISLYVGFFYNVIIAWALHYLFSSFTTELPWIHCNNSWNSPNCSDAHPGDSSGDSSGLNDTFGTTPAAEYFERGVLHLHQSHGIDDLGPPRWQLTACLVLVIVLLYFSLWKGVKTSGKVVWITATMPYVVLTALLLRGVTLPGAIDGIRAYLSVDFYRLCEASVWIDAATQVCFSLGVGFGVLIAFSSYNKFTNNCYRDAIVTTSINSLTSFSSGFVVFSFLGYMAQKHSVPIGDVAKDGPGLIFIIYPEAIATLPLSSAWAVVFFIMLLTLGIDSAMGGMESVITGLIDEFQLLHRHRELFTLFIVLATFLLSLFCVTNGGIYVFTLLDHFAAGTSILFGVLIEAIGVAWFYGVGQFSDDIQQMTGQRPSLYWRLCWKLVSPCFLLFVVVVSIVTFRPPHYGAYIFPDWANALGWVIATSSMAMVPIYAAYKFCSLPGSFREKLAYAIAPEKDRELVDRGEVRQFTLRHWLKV
In words: [3H]DA uptake in HEK hDAT cells. Format: cell-based. The settings on record: Table II.

For assay [2], the target named is T3, hSERT (Homo sapiens, UniProt P31645).
T3 construct: expressed in transfected cells; host or cells: HEK cells expressing hSERT
T3 sequence (P31645 whole entry): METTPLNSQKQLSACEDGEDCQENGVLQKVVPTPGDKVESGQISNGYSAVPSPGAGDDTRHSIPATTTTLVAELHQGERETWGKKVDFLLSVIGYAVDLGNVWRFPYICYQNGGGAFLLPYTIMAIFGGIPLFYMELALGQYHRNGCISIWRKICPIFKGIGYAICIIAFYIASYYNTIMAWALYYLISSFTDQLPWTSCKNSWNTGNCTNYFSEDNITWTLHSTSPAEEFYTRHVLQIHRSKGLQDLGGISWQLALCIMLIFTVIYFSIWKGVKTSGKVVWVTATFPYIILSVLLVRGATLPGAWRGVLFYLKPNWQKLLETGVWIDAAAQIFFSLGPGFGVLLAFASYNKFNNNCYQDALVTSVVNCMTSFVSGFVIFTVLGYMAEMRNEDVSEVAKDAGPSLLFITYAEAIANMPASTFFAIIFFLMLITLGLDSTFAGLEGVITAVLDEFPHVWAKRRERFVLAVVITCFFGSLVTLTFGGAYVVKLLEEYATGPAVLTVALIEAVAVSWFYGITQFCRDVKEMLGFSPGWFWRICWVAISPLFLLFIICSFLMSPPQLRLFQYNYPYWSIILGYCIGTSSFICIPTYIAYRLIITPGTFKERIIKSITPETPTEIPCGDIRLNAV
Nature of the assay: [125I]RTI-55 binding in HEK hSERT membranes. The settings on record: Table II; bound given in μM.

Assay [3] addresses T3, hSERT. In words: [3H]5HT uptake in HEK-hSERT cells. The settings on record: Table II; bound given in μM. Format: cell-based.
For assay [4], the target named is T4, hNET (Homo sapiens, UniProt P23975).
T4 construct: expressed in transfected cells; host or cells: HEK cells expressing hNET
T4 sequence (P23975 whole entry): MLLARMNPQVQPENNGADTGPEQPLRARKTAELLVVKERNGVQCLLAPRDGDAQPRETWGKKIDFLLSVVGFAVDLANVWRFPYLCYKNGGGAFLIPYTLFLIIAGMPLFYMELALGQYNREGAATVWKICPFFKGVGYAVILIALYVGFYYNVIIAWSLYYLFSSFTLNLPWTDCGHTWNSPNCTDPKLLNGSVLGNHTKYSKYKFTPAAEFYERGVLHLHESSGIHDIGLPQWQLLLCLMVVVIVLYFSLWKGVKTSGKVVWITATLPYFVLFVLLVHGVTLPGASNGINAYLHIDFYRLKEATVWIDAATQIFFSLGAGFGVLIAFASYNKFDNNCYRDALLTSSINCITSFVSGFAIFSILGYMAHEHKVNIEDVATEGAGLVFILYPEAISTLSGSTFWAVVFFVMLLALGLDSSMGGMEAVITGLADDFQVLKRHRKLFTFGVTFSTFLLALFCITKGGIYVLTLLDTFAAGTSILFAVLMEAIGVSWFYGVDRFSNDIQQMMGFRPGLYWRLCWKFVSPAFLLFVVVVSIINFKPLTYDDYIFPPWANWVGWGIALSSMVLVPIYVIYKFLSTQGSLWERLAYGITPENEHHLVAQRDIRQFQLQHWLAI
Nature of the assay: [125I]RTI-55 binding in HEK-hNET membranes. The settings on record: Table II.

Assay [5] concerns the target T4, hNET. Nature of the assay: [3H]NE uptake in HEK-hNET cells. Format: cell-based. The settings on record: Table II.
Setting [6] is: Table 1, [125I]RTI-55 34 pM, HEK-293 hDAT membranes, mean +/- range or s.e.m. of 2 or 3 experiments, read-out: Ki value.
[7] abbreviates: Table 1, HEK-293 hDAT membranes.
[8] abbreviates: Table II, read-out: [125I]RTI-55 Binding in HEK hDAT Membranes Ki (nM) sem.
Setting [9] is: read-out: [3H]DA Uptake in HEK hDAT cells IC50 (nM) sem.
[10] abbreviates: bound given in μM, read-out: [125I]RTI-55 Binding in HEK-hNET Membranes KI.
The mark [11] stands for this setting: read-out: [3H]NE Uptake in HEK-hNET cells IC50 (nM) sem.
The mark [12] stands for this setting: Table II, bound given in μM, read-out: [125I]RTI-55 Binding in HEK hDAT Membranes Ki.
[13] abbreviates: bound given in μM, read-out: [3H]DA Uptake in HEK hDAT cells IC50.
The mark [14] stands for this setting: bound given in μM, read-out: [3H]NE Uptake in HEK-hNET cells IC50.
Where [15] appears, read: read-out: [125I]RTI-55 Binding in HEK-hNET Membranes KI (nM) sem.

Like-named read-outs stand apart in the source and are kept apart here.

T1 sequence (Q01959 whole entry): as the sequence (Q01959 whole entry) above

For the compound `CN(C)C(=O)C(/C=C/c1ccccc1)N1CCC(c2ccccc2)CC1` (stereo not shown) [RNH-Z-28], the inhibition constant Ki is 3920 ± 1240 nM in assay [1] (setting [6]), 3920 ± 1240 nM in assay [1] (setting [8]), above 10 µM on hSERT [2] and above 10 µM on hNET [4] (setting [10]). Also, the “Hill Coefficient” value in assay [1] (setting [7]) is −2.1 ± 0.6. In addition, the “[125I]RTI-55 Binding in HEK hDAT Membranes Hill slope” value in assay [1] (Table II) is given as −2.09 ± 0.60. Besides, the IC50 at hDAT (setting [9]) was 4040 ± 1630 nM; on hSERT [3], above 10 µM; on hNET [5] (setting [11]), 211 ± 65 nM.

`O=C(O)C(/C=C/c1ccccc1)N1CCC(c2ccccc2)CC1` (stereo not shown) [RNH-Z-24]: the figures for the Ki (in assay [1] (setting [12]); on hSERT [2]; at hNET [4] (setting [10])) were above 10000 nM, above 10 µM and above 10 µM, respectively. Besides, the half-inhibitory concentration (IC50) at hDAT (setting [13]) is above 10000 nM; at hSERT [3], above 10 µM; at hNET [5] (setting [11]), 204 ± 85 nM.

For `CN(CCCN1c2ccccc2C=Cc2ccccc21)C(/C=C/c1ccccc1)C(=O)O` (stereo not shown) [RNH-Z-52], the results for the Ki (in assay [1] (setting [12]); at hSERT [2]; at hNET [4] (setting [10])) were above 10000 nM, above 10 µM and above 10 µM, respectively. Besides, the IC50 at hDAT (setting [13]) was above 10000 nM; against hSERT [3], above 10 µM; on hNET [5] (setting [14]), above 10000 nM.

On to `CC(Cc1cccc(C(F)(F)F)c1)NC(/C=C/c1ccccc1)C(=O)O` (stereo not shown) [RNH-Z-58], for which the Ki was above 10000 nM in assay [1] (setting [12]), above 10 µM on hSERT [2] and above 10 µM on hNET [4] (setting [10]). Besides, the results for the IC50 at hDAT (setting [13]), against hSERT [3] and at hNET [5] (setting [14]) were above 10000 nM, above 10 µM and above 10000 nM, respectively.

On to `O=C(O)C(/C=C/c1ccccc1)NC1CCc2ccccc21` (stereo not shown) [RNH-Z-39], for which the Ki is above 10000 nM in assay [1] (setting [12]), above 10 µM at hSERT [2] and 2.92 ± 1.23 µM at hNET [4] (setting [15]). Besides, the results for the IC50 at hDAT (setting [13]), against hSERT [3] and on hNET [5] (setting [14]) were above 10000 nM, above 10 µM and above 10000 nM, respectively. For the same compound, the “[125I]RTI-55 Binding in HEK-hNET Membranes Hill slope” value at hNET [4] is on record as −0.96 ± 0.17.

In the case of `O=C(O)C(/C=C/c1ccccc1)C1CCN(CCOC(c2ccccc2)c2ccccc2)CC1` (stereo not shown) [ZHN-92], the Ki is 3710 ± 1250 nM in assay [1] (setting [6]), above 10 µM at hSERT [2] and above 10 µM at hNET [4] (setting [10]). Moreover, in assay [1] (setting [7]), the “Hill Coefficient” value is recorded as −1.2 ± 0.2. In addition, in assay [1] (Table II), the “[125I]RTI-55 Binding in HEK hDAT Membranes Hill slope” value is on record as −1.15 0.15. In addition, the IC50 on hDAT (setting [9]) was 2010 ± 428 nM; at hSERT [3], above 10 µM; at hNET [5] (setting [11]), 113 ± 15 nM.

Take `O=C(NCc1cccc2ccccc12)C(/C=C/c1ccccc1)N1CCC(c2ccccc2)CC1` (stereo not shown) [RNH-Z-31]: the Ki in assay [1] (setting [6]) is 7730 ± 3070 nM; in assay [1] (setting [8]), 7730 ± 3070 nM; at hSERT [2], above 10 µM; at hNET [4] (setting [10]) it was above 10 µM. The “Hill Coefficient” value in assay [1] (setting [7]) was −7.0 ± 4.5. In assay [1] (Table II), the “[125I]RTI-55 Binding in HEK hDAT Membranes Hill slope” value was −7.00 ± 4.54. Besides, the IC50 at hDAT (setting [13]) is above 10000 nM; on hSERT [3] it was above 10 µM; at hNET [5] (setting [14]) it was above 10000 nM.

On to `O=C(O)C(/C=C/c1ccccc1)N1CCC(O)(c2ccc(Cl)cc2)CC1` (stereo not shown) [RNH-Z-48], for which the values for the Ki (in assay [1] (setting [12]); at hSERT [2]; on hNET [4] (setting [10])) were above 10000 nM, above 10 µM and above 10 µM, respectively. Besides, the IC50 on hDAT (setting [13]) is above 10000 nM; on hSERT [3], above 10 µM; on hNET [5] (setting [14]), above 10000 nM.

Take `O=C(O)C(/C=C/c1ccccc1)C1CCN(CCOC(c2ccc(F)cc2)c2ccc(F)cc2)CC1` (stereo not shown) [ZHN-93]: the Ki in assay [1] (setting [6]) is 727 ± 291 nM; in assay [1] (setting [8]), 727 ± 291 nM; at hSERT [2] it was above 10 µM; on hNET [4] (setting [15]), 4.54 ± 1.54 µM. Moreover, the “Hill Coefficient” value in assay [1] (setting [7]) is −1.0 ± 0.3. Moreover, the “[125I]RTI-55 Binding in HEK hDAT Membranes Hill slope” value in assay [1] (Table II) is recorded as −1.02 ± 0.30. For the same compound, the values for the concentration for half-maximal inhibition (IC50) on hDAT (setting [9]), against hSERT [3] and on hNET [5] (setting [11]) were 182 ± 59 nM, above 10 µM and 117 ± 20 nM, respectively. Also, the “[125I]RTI-55 Binding in HEK-hNET Membranes Hill slope” value on hNET [4] is given as −1.78 ± 0.65.

With `c1ccc(CCCN2CCN(CCOC(c3ccccc3)c3ccccc3)CC2)cc1` [GBR-12935, reference compound], the “[125I]RTI-55 Binding in HEK-hNET Membranes Hill slope” value at hNET [4] is recorded as −0.90 ± 0.07. In addition, on hNET [4] (setting [15]), the Ki is 0.628 ± 0.059 µM. Further, at hNET [5] (setting [11]), the IC50 turned out to be 165 ± 17 nM.

Turning to `O=C(O)C(/C=C/c1ccccc1)N1CCN(CCOC(c2ccccc2)c2ccccc2)CC1` (stereo not shown) [ZHN-94], the Ki in assay [1] (setting [6]) is 2780 ± 1250 nM; in assay [1] (setting [8]) it was 2780 ± 1250 nM; at hSERT [2] it was above 10 µM; on hNET [4] (setting [10]), above 10 µM. The “Hill Coefficient” value in assay [1] (setting [7]) is listed as −0.8 ± 0.2. Also, the “[125I]RTI-55 Binding in HEK hDAT Membranes Hill slope” value in assay [1] (Table II) is reported as −0.78 ± 0.17. Besides, the IC50 was 385 ± 111 nM on hDAT (setting [9]), above 10 µM against hSERT [3] and 2200 ± 470 nM at hNET [5] (setting [11]).

`CN(CCC=C1c2ccccc2CCc2ccccc21)C(/C=C/c1ccccc1)C(=O)O` (stereo not shown) [RNH-Z-44]: the Ki in assay [1] (setting [6]) is 3300 ± 855 nM; in assay [1] (setting [8]), 3300 ± 855 nM; at hSERT [2] it was above 10 µM; at hNET [4] (setting [10]) it was above 10 µM. Further, the “Hill Coefficient” value in assay [1] (setting [7]) is given as −2.2 ± 0.9. Further, the “[125I]RTI-55 Binding in HEK hDAT Membranes Hill slope” value in assay [1] (Table II) is listed as −2.16 ± −0.89. Further, the IC50 on hDAT (setting [9]) was 1820 ± 819 nM; at hSERT [3], above 10 µM; on hNET [5] (setting [14]), above 10000 nM.

Usually Ki stands for a dissociation constant, usually derived from enzyme kinetics or from competition with a known ligand. What is called IC50 is the midpoint of a concentration-inhibition curve.
